Key:
Experiment in all cases: relative viability (nuclei count vs DMSO), 5 days (fraction); higher = more cells survive
Motesanib + Luminespib = compound: CC1(C)CNc2cc(NC(=O)c3cccnc3NCc3ccncc3)ccc21 [Motesanib] + CCNC(=O)c1noc(-c2cc(C(C)C)c(O)cc2O)c1-c1ccc(CN2CCOCC2)cc1 [Luminespib] (partner 0.01 µM)
Outline: (§1)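 For relative viability, nuclei counts in treated wells were divided by those in vehicle wells. Lung cancer cell lines had been pin-tool dosed in 1536-well plates the day after seeding and cultured for 5 days, then fixed and stained in one step (final 0.05% Triton X-100, 1% formaldehyde, 1 ug/ml Hoechst) and imaged at 4×. Doses were one drug alone or a fixed anchor-drug dose plus five library-drug doses (not always all listed) in √10 steps, and values are duplicate-plate medians.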

Motesanib + Crizotinib = compound: CC1(C)CNc2cc(NC(=O)c3cccnc3NCc3ccncc3)ccc21 [Motesanib] + C[C@@H](Oc1cc(-c2cnn(C3CCNCC3)c2)cnc1N)c1c(Cl)ccc(F)c1Cl [Crizotinib] (partner 1 µM)
Outline: as §1

Motesanib + Pemetrexed = compound: CC1(C)CNc2cc(NC(=O)c3cccnc3NCc3ccncc3)ccc21 [Motesanib] + Nc1nc2[nH]cc(CCc3ccc(C(=O)N[C@@H](CCC(=O)O)C(=O)O)cc3)c2c(=O)[nH]1 [Pemetrexed] (partner 0.2 µM)
Outline: as §1

[1] = compound: C[C@@]1(C(=O)Nc2ccc(F)nc2)CCCN1c1nc(Nc2cc(C3CC3)n[nH]2)c2cccn2n1 + COc1cccc2cc(-c3nc([C@H]4CC[C@H](C(=O)O)CC4)n4ncnc(N)c34)[nH]c12 [OSI-027] (partner 0.5 µM)
Outline: as §1

Row | Cell Line | relative viability (Motesanib + Luminespib; first compound 0.01 µM) | relative viability (Motesanib + Luminespib; first compound 0.03162 µM) | relative viability (Motesanib + Luminespib; first compound 0.1 µM) | relative viability (Motesanib + Luminespib; first compound 0.3162 µM) | relative viability (Motesanib + Luminespib; first compound 1 µM) | relative viability (Motesanib + Crizotinib; first compound 0.01 µM) | relative viability (Motesanib + Crizotinib; first compound 0.03162 µM) | relative viability (Motesanib + Crizotinib; first compound 0.1 µM) | relative viability (Motesanib + Crizotinib; first compound 0.3162 µM) | relative viability (Motesanib + Crizotinib; first compound 1 µM) | relative viability (Motesanib + Pemetrexed; first compound 0.01 µM) | relative viability (Motesanib + Pemetrexed; first compound 0.03162 µM) | relative viability (Motesanib + Pemetrexed; first compound 0.1 µM) | relative viability (Motesanib + Pemetrexed; first compound 0.3162 µM) | relative viability (Motesanib + Pemetrexed; first compound 1 µM) | relative viability ([1]; first compound 0.04 µM) | relative viability ([1]; first compound 0.1265 µM) | relative viability ([1]; first compound 0.4 µM) | relative viability ([1]; first compound 1.265 µM)
1 | NCI-H1755 | 0.492 | 0.505 | 0.353 | 0.445 | 0.315 | 0.862 | 0.867 | 0.893 | 0.91 | 0.882 | 0.403 | 0.356 | 0.38 | 0.401 | 0.32 | 0.695 | 0.355 | 0.589 | 0.484
2 | NCI-H1792 | 0.447 | 0.428 | 0.406 | 0.501 | 0.466 | 0.931 | 0.92 | 1.01 | 1.05 | 0.968 | 0.778 | 0.859 | 0.791 | 0.785 | 0.711 | 0.303 | 0.828 | 0.199 | 0.212
3 | NCI-H1915 | 0.765 | 0.745 | 0.764 | 0.826 | 0.754 | 0.897 | 0.851 | 0.875 | 0.927 | 0.947 | 0.54 | 0.484 | 0.451 | 0.463 | 0.442 | 0.612 | 0.628 | 0.592 | 0.604
4 | NCI-H1944 | 0.79 | 0.785 | 0.749 | 0.772 | 0.78 | 1.08 | 1.06 | 1.17 | 1.02 | 1.17 | 0.58 | 0.628 | 0.565 | 0.554 | 0.442 | 0.306 | 0.256 | 0.225 | 0.235
5 | NCI-H1975 | 0.275 | 0.203 | 0.224 | 0.261 | 0.361 | 1.05 | 0.848 | 0.93 | 0.889 | 0.983 | 0.283 | 0.281 | 0.274 | 0.271 | 0.239 | 0.663 | 0.498 | 0.423 | 0.527
6 | NCI-H1993 | 0.923 | 0.734 | 0.826 | 0.863 | 0.932 | 0.964 | 0.848 | 0.842 | 0.824 | 0.865 | 0.452 | 0.623 | 0.533 | 0.641 | 0.57 | 0.545 | 0.533 | 0.665 | 0.605
7 | NCI-H2009 | 1.01 | 1.04 | 0.945 | 1.07 | 1.01 | 0.965 | 1.09 | 0.928 | 1.01 | 0.943 | 0.949 | 1.02 | 1.01 | 1.06 | 0.973 | 0.634 | 0.371 | 0.403 | 0.42
8 | NCI-H2023 | 0.778 | 0.687 | 0.855 | 0.811 | 0.783 | 0.711 | 0.592 | 0.747 | 0.571 | 0.711 | 0.224 | 0.201 | 0.245 | 0.217 | 0.263 | 0.3 | 0.088 | 0.105 | 0.116
9 | NCI-H2085 | 0.47 | 0.434 | 0.428 | 0.438 | 0.462 | 0.924 | 0.846 | 1.05 | 0.807 | 0.756 | 0.895 | 0.969 | 0.852 | 0.851 | 0.892 | 0.788 | 0.679 | 0.599 | 0.535
10 | NCI-H2087 | 0.159 | 0.174 | 0.149 | 0.149 | 0.145 | 0.686 | 0.983 | 0.951 | 0.878 | 0.93 |  |  | 0.657 | 0.73 | 0.605 | 0.366 | 0.254 | 0.267 | 0.338
11 | NCI-H2126 | 0.9 | 0.901 | 0.963 | 0.933 | 0.961 | 1.07 | 1 | 0.999 | 1.03 | 1.09 | 0.683 | 0.715 | 0.615 | 0.695 | 0.655 | 0.469 | 0.311 | 0.256 | 0.344
12 | NCI-H2170 | 0.628 | 0.726 | 0.39 | 0.734 | 0.645 | 1.16 | 1.19 | 1.15 | 1.13 | 1.18 | 0.258 | 0.255 | 0.257 | 0.269 | 0.253 | 0.721 | 0.525 | 0.592 | 0.564
13 | NCI-H2228 | 0.19 | 0.148 | 0.228 | 0.142 | 0.163 | 0.386 | 0.424 | 0.619 | 0.431 | 0.571 | 0.366 | 0.292 | 0.254 | 0.191 | 0.241 | 0.495 | 0.187 | 0.227 | 0.229
14 | NCI-H2347 | 0.858 | 0.254 | 0.5 | 0.48 | 0.4 | 0.783 | 0.691 | 0.715 | 0.745 | 0.631 | 0.396 | 0.406 | 0.387 | 0.447 | 0.364 | 0.33 | 0.287 | 0.244 | 0.342
15 | NCI-H2405 |  | 0.536 | 0.741 | 0.689 | 0.813 | 0.8 | 0.847 | 0.875 | 0.864 | 0.905 | 1.05 | 1.11 | 1.02 | 1.11 | 1.02 | 0.401 | 0.294 | 0.269 | 0.272
16 | NCI-H3122 | 0.0808 | 0.0851 | 0.0914 | 0.0799 | 0.0833 | 0.253 | 0.27 | 0.285 | 0.295 | 0.267 | 0.186 | 0.191 | 0.184 | 0.202 | 0.219 | 0.499 | 0.86 | 0.275 | 0.412
17 | PC-3 [JPC-3] | 0.686 | 0.745 | 0.683 | 0.597 | 0.733 | 0.997 | 1.03 | 1.02 | 1.01 | 1.01 | 1.02 | 1.04 | 1.04 | 1.03 | 0.974 | 0.688 | 0.59 | 0.485 | 0.621
18 | PC-14 | 0.117 | 0.142 | 0.126 | 0.218 | 0.154 | 0.944 | 0.965 | 0.898 | 0.883 | 0.969 | 0.131 | 0.126 | 0.132 | 0.128 | 0.13 | 0.869 | 0.284 | 0.563 | 0.279
19 | RERF-LC-KJ | 1.31 | 1.2 | 1.12 | 1.38 | 1.27 | 0.87 | 0.762 | 0.878 | 0.768 | 0.879 | 0.471 | 0.502 | 0.495 | 0.472 | 0.527 | 0.51 | 0.306 | 0.334 | 0.346
20 | SK-LU-1 | 0.219 | 0.188 | 0.195 | 0.204 | 0.158 | 0.961 | 0.935 | 0.826 | 0.897 | 0.988 | 0.961 | 0.806 | 0.547 | 0.417 | 0.347 | 0.252 | 0.176 | 0.198 | 0.219
21 | SK-MES-1 | 0.84 | 0.842 | 0.986 | 0.785 | 0.721 | 0.983 | 0.986 | 1.01 | 1.05 | 0.977 | 0.912 | 0.953 | 1.03 | 0.943 | 1.02 | 0.615 | 0.317 | 0.357 | 0.286
22 | SW 1573 | 0.152 | 0.266 | 0.207 | 0.323 | 0.335 | 0.686 | 0.887 | 0.913 | 0.746 | 0.973 | 0.764 | 0.833 | 0.864 | 0.882 | 0.854 | 0.548 | 0.24 | 0.283 | 0.302
23 | UMC-11 | 0.987 | 1.07 | 0.927 | 1.12 | 1.17 | 0.526 | 0.657 | 0.631 | 0.595 | 0.742 | 0.834 | 0.696 | 0.575 | 0.608 | 0.556 | 0.531 | 0.416 | 0.485 | 0.37

Reference: the supplement of paper PMC10307832
